According to patent US20230276792A1, “SELECTIVE HERBICIDES BASED ON SUBSTITUTED ISOXAZOLIN CARBOXAMIDES AND CLOQUINTOCET-MEXYL” (Bayer Aktiengesellschaft, priority 2020, published 2023):

How the values were obtained:
Type in all cases: in vivo
[1] = test system: spring wheat, TRZAS Triso; assay: Safener seed treatment, post-emergence herbicide application, crop damage; settings: 21 DAT; for HER effect + SAF [%]: cloquintocet-mexyl 0, 5 g a.i./kg seed; for HER effect [%]: without safener
Excerpt: For safener seed treatment trials, sufficient seed amounts of the respective crops (spring wheat (TRZAS); spring barley (HORVS)) were weighed into screw cap glass bottles with a minimum volume trice of the seeds.
As a first step, specified safeners formulated as wettable powder (WP) or wettable granules (WG) were weighed out for the required dosages (g a.i./kg seed), corresponding to the seed amounts. The safener amounts were mixed with a coloured slurry blind formulation type, pre-diluted with milk at 3.5% fat rate (25 mgs slurry formulation plus 2 ml milk per 10 grams of seed). A tube roller was used for coating. The solutions were gradually pipetted each on the rotating seeds followed by coating for min. 3 hours until all liquid had been soaked up by the seeds. Thereafter, the coated seeds were put flat on open trays for drying over night at room temperature.
Treated seeds were then placed into pots (7 cm diameter) on the surface of sandy loam, pressed down, flat covered with additional soil and finally covered with sandy soil, also pressed down, watered, and kept under good growth conditions in a greenhouse, until the plants had reached 2-leaf-stage (BBCH 12).
At that stage, post-emergence application of the specified herbicides was done on: • a) pot sets containing plants with safener-coated seeds as described above, • b) as a reference, pot sets of plants without seed treatment.
The herbicides were formulated as wettable powder (WP). Equivalent to the spray area, compound amounts were weighed out and diluted related to the water application rate (300 l/ha) to an aqueous suspension plus additive (1 l/ha MERO). Dosage related equivalents were conventionally sprayed on trays with the potted plants.
After application, the test plants were kept under good growth conditions in a greenhouse. Assessment timings were 10 and 21 days after treatment (DAT) with the herbicide, by visual scoring of the crop damage in % (comparison of untreated with treated plants, either sprayed only with herbicide or with herbicide on plants with treated seeds).
(§1) Reduction [Difference]=herbicide damage without safener−herbicide damage with safener
(§2) Reduction [%]=(Reduction [Difference]*100)/herbicide damage without safener
b) Plant Species, Variety: TRZAS Triso, Safener (SAF): Cloquintocet-Mexyl

[2] = test system: spring wheat, TRZAS Triso; assay: Safener seed treatment, pre-emergence herbicide application, crop damage; settings: cloquintocet-mexyl 0.25 g a.i./kg seed
Description: (§3) For the safener seed treatment, sufficient seeds of the respective crops (spring wheat, TRZAS; spring barley, HORVS; maize, ZEAMA) were weighed into screw top glass bottles approximately twice the volume of the seeds.
(§4) The specified safeners, formulated as wettable powder (WP) were weighed out so that the specified rates (g a.i./kg seed) would be obtained, dissolved in water (1 ml water per 10 g of seeds), and added to the seeds to produce a slurry.
(§5) The bottles were capped and then placed in an overhead shaker (set at medium speed for ca. 60 minutes) so that the seeds were evenly coated with the slurry. The bottles were uncapped and the seeds were either placed on paper and dried for an interval of 3-4 hours prior to sowing, or directly sown. Seeds were placed in sandy loam soil in pots of a diameter of 7-8 cm, and covered with soil.
Pre-emergence application of the specified herbicides was done subsequently, on two sets of plants: • a) seed treatment with safener, as described above • b) no safener treatment
The herbicides were formulated as WP and was sprayed onto the soil surface as an aqueous suspension at an equivalent water application rate of 300 l/ha.
(§6) After application, the test plants were kept in the greenhouse under good growth conditions. At intervals up to 4 weeks after application (=28 days after treatment; DAT), % crop damage observed on the treated plants was scored visually in comparison to control plants that had not received any safener or herbicide treatment.
Values in the table below are mean values of at least 2 replicates.
as §1, §2
a) Plant Species, Variety: TRZAS Triso, Safener (SAF): Cloquintocet-Mexyl

[3] = test system: spring barley, HORVS Montoya; assay: as above; settings: 21 (Final) DAT; HER dose 15 g a.i./ha; cloquintocet-mexyl 0.25 g a.i./kg seed
Description: as §3, §4, §5
Pre-emergence application of the specified herbicides was done subsequently, on two sets of plants: • a) seed treatment with safener, as described above • b) no safener treatment […]
as §6, with “treatment. […]” for “treatment.”

[4] = 11 (Interim) DAT, HER dose 15 g a.i./ha
[5] = 21 (Final) DAT, HER dose 15 g a.i./ha

SMILES: C=CC1(C(=O)NC2COC(C(=O)OC)C2)CC(c2cc(F)cc(F)c2)=NO1 (mixture of isomers) [Example 1.68]
- HER effect + SAF [%] ([1]; HER dose 1 g a.i./ha): 20%
- HER effect [%] ([1]; HER dose 1 g a.i./ha): 80%
- HER effect + SAF [%] ([1]; HER dose 4 g a.i./ha): 30%
- HER effect [%] ([1]; HER dose 4 g a.i./ha): 85%
- Reduction [Difference] ([2]; 11 (Interim) DAT, HER dose 5 g a.i./ha): 45
- Reduction [%] [2, 4]: 88%
- Reduction [Difference] [2, 4]: 70
- Reduction [Difference] ([2]; 21 (Final) DAT, HER dose 5 g a.i./ha): 45
- Reduction [%] [2, 5]: 94%
- Reduction [Difference] [2, 5]: 80
- Reduction [Difference] [3]: 80
